What all share (type): in vivo
Assay [1] deals with Lolium perenne (LOLPE). Nature of the assay: Pre-emergence herbicidal glasshouse test, Lolium perenne. To be noted: 312 h, rate 250 g/ha, evaluated after 13 days, scale 100 = total damage to plant, 0 = no damage. The method, boiled down: (§1)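 Visual damage scores (0 = undamaged, top = plant totally killed) were taken 13 days after spraying. Treatment was given one day after sowing or at day 8 of cultivation, under 24/16° C. glasshouse conditions.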

The test system of assay [2] is Alopecurus myosuroides (ALOMY). Nature of the assay: Pre-emergence herbicidal glasshouse test, Alopecurus myosuroides. To be noted: Alopecurus myosuroides, 312 h, rate 250 g/ha, evaluated after 13 days, scale 100 = total damage to plant, 0 = no damage. The gist of the method: as §1
Assay [3] deals with Echinochloa crus-galli (ECHCG). Nature of the assay: Pre-emergence herbicidal glasshouse test, Echinochloa crus-galli. The conditions noted are these: Echinochloa crus-galli, 312 h, rate 250 g/ha, evaluated after 13 days, scale 100 = total damage to plant, 0 = no damage. The gist of the method:
as §1

The subject of assay [4] is Avena fatua (AVEFA). Nature of the assay: Pre-emergence herbicidal glasshouse test, Avena fatua. To be noted: Avena fatua, 312 h, rate 250 g/ha, evaluated after 13 days, scale 100 = total damage to plant, 0 = no damage. The gist of the method: as §1
The test system of assay [5] is Lolium perenne (LOLPE). The assay can be described thus: Post-emergence herbicidal glasshouse test, Lolium perenne. The conditions noted are these: 312 h, rate 250 g/ha, evaluated after 13 days, scale 100 = total damage to plant, 0 = no damage. The method, boiled down: as §1
The test system of assay [6] is Alopecurus myosuroides (ALOMY). The assay can be described thus: Post-emergence herbicidal glasshouse test, Alopecurus myosuroides. The conditions noted are these: Alopecurus myosuroides, 312 h, rate 250 g/ha, evaluated after 13 days, scale 100 = total damage to plant, 0 = no damage. The gist of the method: as §1
Assay [7] concerns Echinochloa crus-galli (ECHCG). The assay can be described thus: Post-emergence herbicidal glasshouse test, Echinochloa crus-galli. The conditions noted are these: Echinochloa crus-galli, 312 h, rate 250 g/ha, evaluated after 13 days, scale 100 = total damage to plant, 0 = no damage. The method, boiled down: as §1
The test system of assay [8] is Avena fatua (AVEFA). Nature of the assay: Post-emergence herbicidal glasshouse test, Avena fatua. The conditions noted are these: Avena fatua, 312 h, rate 250 g/ha, evaluated after 13 days, scale 100 = total damage to plant, 0 = no damage. The gist of the method:
as §1

For `CCc1cc(-c2ccc(F)cc2)ccc1C1=C(O)C(C)OC(C)(C)C1=O` (stereo not shown) [Compound A-105], the pest or weed control at 250 g/ha in assay [1] worked out at 40%; in assay [2] it was 40%; in assay [3] it was 20%; in assay [4], 0%; in assay [5], 90%; in assay [6] it was 80%. The pest or weed control at 250 g/ha in assay [7] worked out at 90%; in assay [8], 30%.
Turning to `CCc1cc(-c2ccc(F)c(OC)c2)ccc1C1=C(O)C(C)(COC)OC(C)(C)C1=O` (stereo not shown) [Compound A-112], the pest or weed control at 250 g/ha in assay [1] came out at 90%; in assay [2], 80%; in assay [3], 100%; in assay [4], 80%; in assay [5], 90%; in assay [6], 80%. The pest or weed control at 250 g/ha in assay [7] was 100%; in assay [8], 80%.
Take `CCc1cc(-c2ccc(F)c(F)c2)ccc1C1=C(O)C(C)(COC)OC(C)(C)C1=O` (stereo not shown) [Compound A-113]: the pest or weed control at 250 g/ha came to 100% in assay [1]; 100% in assay [2]; 100% in assay [3]; 90% in assay [4]; 100% in assay [5]; 100% in assay [6]. The pest or weed control at 250 g/ha in assay [7] came out at 100%; in assay [8], 90%.
For `CCc1cc(-c2cc(F)c(F)c(F)c2)ccc1C1=C(O)C(C)(COC)OC(C)(C)C1=O` (stereo not shown) [Compound A-114], the pest or weed control at 250 g/ha in assay [1] was found to be 100%; in assay [2] it was 90%; in assay [3], 100%; in assay [4] it was 90%; in assay [5], 100%; in assay [6] it was 90%. For the same molecule, the pest or weed control at 250 g/ha is 100% in assay [7] and 90% in assay [8].
With `CCc1cc(-c2c(F)cc(F)cc2F)ccc1C1=C(O)C(C)(COC)OC(C)(C)C1=O` (stereo not shown) [Compound A-116], the pest or weed control at 250 g/ha in assay [1] stood at 70%; in assay [2] it was 90%; in assay [3], 100%; in assay [4] it was 60%; in assay [5], 70%; in assay [6], 90%. Also, the pest or weed control at 250 g/ha was found to be 100% in assay [7] and 60% in assay [8].
On to `CCc1cc(-c2ccc(F)c(F)c2F)ccc1C1=C(O)C(C)(COC)OC(C)(C)C1=O` (stereo not shown) [Compound A-117], for which the pest or weed control at 250 g/ha came to 60% in assay [1]; 70% in assay [2]; 90% in assay [3]; 40% in assay [4]; 80% in assay [5]; 90% in assay [6]. The pest or weed control at 250 g/ha in assay [7] came out at 100%; in assay [8], 80%.
For `CCc1cc(-c2ccc(F)c(OC)c2)ccc1C1=C(O)C(C)(CC)OC(C)(C)C1=O` (stereo not shown) [Compound A-118], the pest or weed control at 250 g/ha in assay [1] came to 90%; in assay [2], 20%; in assay [3], 40%; in assay [4], 0%; in assay [5] it was 80%; in assay [6] it was 60%. In addition, the figures for the pest or weed control at 250 g/ha in assay [7] and in assay [8] were 90% and 80%, respectively.
Turning to `CCc1cc(-c2ccc(F)c(F)c2)ccc1C1=C(O)C(C)(CC)OC(C)(C)C1=O` (stereo not shown) [Compound A-119], the pest or weed control at 250 g/ha was 60% in assay [1]; 40% in assay [2]; 30% in assay [3]; 10% in assay [4]; 90% in assay [5]; 100% in assay [6]. For the same molecule, the pest or weed control at 250 g/ha is 100% in assay [7] and 90% in assay [8].
